Laboratory results as given in patent US12490743B2, “Method for treatment of crops” (Wobelea PTY LTD, priority 2019, dated 2025).
Values joined by “and” are separate entries in the source; they are usually repeats but may differ in a detail not shown here. Equal entries are not always repeated.

Assays:
[1] = pH of products dissolved in tank water; format: physicochemical; settings: 0.8%; for pH after active added in unamended tank water: tank water pH 6.25
Protocol: The water used throughout the projects is rainwater held in the dark in a plastic tank with stable pH value of 6.25. Controls were set up by replacing actives with tank water only.
Products were dissolved in tank water before application to the agar plants. Tank water (pH 6.25) was adjusted to the respective pH levels prior to adding the actives to determine the change in pH caused by the actives.
Tank water was adjusted to pH 4.0, 5.5, and 7.0 before adding sodium benzoate, sodium metabisulphite and WOB NP1, each at 0.8%.
Tank water was adjusted to pH 7.0, 7.5 and 8.4 before adding sodium benzoate, sodium sulphite and WOB PH1, each at 0.8%.

Botrytis cinerea [2] = experiment: Curative activity: product-soaked discs laid on pathogen lawn on agar; format: cell-based; settings: 0.8%, 24 hrs
Protocol: (§1) The fungal and bacterial pathogens Erwinia carotovora (bacterial) and Botrytis cinerea (fungal) were cultured on to Nutrient Agar (NA) and potato dextrose agar (PDA), respectively and incubated at ambient temperature until sporulating or well grown.
(§2) Multiple plates of PDA were inoculated with B. cinerea and allowed to sporulate. Multiple plates of NA were inoculated with E. carotovora and allowed to grow into a thick lawn.
(§3) Plates of PDA and NA were inoculated with fungal spores and bacterial cells, respectively, and allowed to grow into a lawn covering the agar surfaces. Three replicates were used for each product and each pH. Following the results from the preliminary tests, pH 4.0 and 7.0 were selected for all further product pH tests.
(§4) When the lawns were well grown and sporulating in the case of the fungal pathogen, five discs soaked with 200 uL of each product (sodium metabisulphite, sodium benzoate, WOB NP1, sodium sulphite, and WOB PH1) at appropriate pH levels were laid onto the sporulating surface or cell lawn surface for the fungal pathogen and the bacterial pathogen, respectively.
(§5) The plates were incubated at ambient temperature (14-25° C.). Inhibition zones were measured at 24 hours, 48 hours and 7 days.
(§6) Water was used unmodified and agars were made up of the 6 products using them at the pH resulting after dissolving to 0.8% concertation. Curative and preventative plates were prepared as described for Example 4 except that pHs were as dissolved (tank water not adjusted prior to dissolving/diluting product).
(§7) The curative and preventative experiments were repeated according to the method of Example 5 using the liquid WOB NP1 and WOB PH 1 formulations and the solid actives sodium metabisulphite, sodium benzoate and sodium sulphite.
(§8) The liquid WOB formulations were divided into 3 aliquots; one was used immediately—time zero; one stored at ambient temperate (15-27° C.) for one week and experiments repeated; one kept refrigerated (5° C.) for one week and experiments repeated.

Botrytis cinerea [3] = experiment: Preventative activity: pathogen plugs laid on agar containing product; format: cell-based; settings: Example 5; unadjusted water pH; 0.8%; WOB as liquid formulation; 24 hrs
Protocol: as §1, §2
(§9) Plates of agar containing each product (Na metabisulphite, Na Benzoate, WOB NP1 of Example 3) and (Na sulphite, Na Benzoate, WOB PH1) at concentrations equivalent to 0.8% concentration were made up and poured into sterile disposal Petri dishes. Three replicates for each product and pH (4.0 and 7.0) were used.
(§10) Sterile agar discs covered with bacterial cells or fungal hyphae and spores were cut from respective plates of B. cinerea and E. carotovora. Three discs were each laid culture surface down onto the amended agar surface, incubated at ambient temperatures (14-25° C.) and observed for inhibition zones at 24 hours, 48 hours and 7 days.
as §6, §7, §8

Erwinia carotovora [4] = experiment: as above; format: cell-based; settings: Example 5; unadjusted water pH; 0.8%; WOB as liquid formulation; 24 hrs
Protocol: as §1, §2, §9, §10, §6, §7, §8

Erwinia carotovora [5] = experiment: Curative activity: product-soaked discs laid on pathogen lawn on agar; format: cell-based; settings: 0.8%, 24 hrs
Protocol: as §1, §2, §3, §4, §5, §6, §7, §8

[6] = tank water adjusted to pH 7.0 before product added
[7] = tank water adjusted to pH 7.5 before product added
[8] = tank water adjusted to pH 8.4 before product added
[9] = tank water adjusted to pH 4.0 before product added
[10] = tank water adjusted to pH 5.5 before product added
[11] = Example 5, unadjusted water pH, WOB as liquid formulation

Row | Compound | pH of water after product added [1, 6] | pH of water after product added [1, 7] | pH of water after product added [1, 8] | pH after active added in unamended tank water [1] | Curative activity on the growth of B. cinerea (Botrytis cinerea [2]; Example 4, pH 7.0) | pH of water after product added [1, 9] | pH of water after product added [1, 10] | Preventative activity on the growth of B. cinerea (Botrytis cinerea [3]) | Preventative activity on the growth of E. carotovora (Erwinia carotovora [4]) | Curative activity on the growth of B. cinerea (Botrytis cinerea [2]; Example 4, pH 4.0) | Curative activity on the growth of B. cinerea (Botrytis cinerea [2]; [11]) | Curative activity on the growth of E. carotovora (Erwinia carotovora [5]; Example 4, pH 7.0) | Curative activity on the growth of E. carotovora (Erwinia carotovora [5]; Example 4, pH 4.0) | Curative activity on the growth of E. carotovora (Erwinia carotovora [5]; [11])
1 | O=S([O-])[O-].[Na+].[Na+] [Na sulphite, sodium sulphite] | 6.78 | 6.78 | 6.99 | 5.24 | No effect |  |  |  |  |  |  |  |  | 
2 | O=C([O-])c1ccccc1.[Na+] [Na Benzoate, sodium benzoate] | 6.60 and 6.74 | 6.80 | 6.85 | 4.78 | No effect | 6.15 | 6.34 | No obvious effect | No obvious effect | No obvious effect | No obvious effect | No effect |  | 
3 | O=S([O-])S(=O)(=O)[O-].[Na+].[Na+] [Na metabisulphite, sodium metabisulphite] | 6.14 |  |  | 4.74 |  | 3.75 | 5.52 | No obvious effect | No obvious effect | No effect | No obvious effect |  | No effect | No obvious effect
